The text below walks through data of patent US10206394B2, “Herbicidal compounds” (Syngenta Participations AG, priority 2014, dated 2019).

Read-outs that look alike come from different tables or passages of the source.

What all share (experiment): Glasshouse assay for herbicidal activity (pre- and post-emergence), percentage phytotoxicity
Common to all, as to format: in vivo

Test [1] deals with Echinochloa crus-galli (ECHCG). Particulars: Echinochloa crus-galli. Put shortly: (§1)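 Pot-grown plants treated one day after sowing (pre-emergence) or at about 12 days (post-emergence); glasshouse at 24/18° C (warm) or 20/16° C (cool species) day/night, 16 h light, 65% humidity. Visual % phytotoxicity (0 = none, 100 = total damage) scored at 15 DAA post or 20 DAA pre.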
Another test has as its system Lolium perenne (LOLPE). The conditions noted are these: Lolium perenne. The procedure, abridged:
as §1

Test [2] has as its system Alopecurus myosuroides (ALOMY). The conditions noted are these: Alopecurus myosuroides. Put shortly:
as §1

A further test deals with Avena fatua (AVEFA). The conditions noted are these: Avena fatua. The procedure, abridged:
as §1

[3] abbreviates: post-emergence, 360 h, Rate 250 g/ha, post-emergence, assessed visually 15 DAA, 100%=total damage, 0%=no damage, read-out: Post-emergence herbicidal activity (percentage phytotoxicity) ECHCG POST.
[4] abbreviates: pre-emergence, 480 h, Rate 250 g/ha, pre-emergence, assessed visually 20 DAA, 100%=total damage, 0%=no damage, read-out: Pre-emergence herbicidal activity (percentage phytotoxicity) ECHCG PRE.
[5] abbreviates: post-emergence, 360 h, Rate 250 g/ha, post-emergence, assessed visually 15 DAA, 100%=total damage, 0%=no damage, read-out: Post-emergence herbicidal activity (percentage phytotoxicity) LOLPE POST.
Where [6] appears, read: pre-emergence, 480 h, Rate 250 g/ha, pre-emergence, assessed visually 20 DAA, 100%=total damage, 0%=no damage, read-out: Pre-emergence herbicidal activity (percentage phytotoxicity) LOLPE PRE.
The mark [7] stands for this setting: post-emergence, 360 h, Rate 250 g/ha, post-emergence, assessed visually 15 DAA, 100%=total damage, 0%=no damage, read-out: Post-emergence herbicidal activity (percentage phytotoxicity) ALOMY POST.
The mark [8] stands for this setting: pre-emergence, 480 h, Rate 250 g/ha, pre-emergence, assessed visually 20 DAA, 100%=total damage, 0%=no damage, read-out: Pre-emergence herbicidal activity (percentage phytotoxicity) ALOMY PRE.
[9] abbreviates: post-emergence, 360 h, Rate 250 g/ha, post-emergence, assessed visually 15 DAA, 100%=total damage, 0%=no damage, read-out: Post-emergence herbicidal activity (percentage phytotoxicity) AVEFA POST.
Where [10] appears, read: pre-emergence, 480 h, Rate 250 g/ha, pre-emergence, assessed visually 20 DAA, 100%=total damage, 0%=no damage, read-out: Pre-emergence herbicidal activity (percentage phytotoxicity) AVEFA PRE.
Where [11] appears, read: post-emergence, 360 h, 250 g/ha, post-emergence, 15 DAA, visual assessment (100%=total damage, 0%=no damage), read-out: Post-emergence herbicidal activity (percentage phytotoxicity) ECHCG POST.
[12] abbreviates: pre-emergence, 480 h, 250 g/ha, pre-emergence, 20 DAA, visual assessment (100%=total damage, 0%=no damage), read-out: Pre-emergence herbicidal activity (percentage phytotoxicity) ECHCG PRE.
The mark [13] stands for this setting: post-emergence, 360 h, 250 g/ha, post-emergence, 15 DAA, visual assessment (100%=total damage, 0%=no damage), read-out: Post-emergence herbicidal activity (percentage phytotoxicity) LOLPE POST.
Setting [14] is: pre-emergence, 480 h, 250 g/ha, pre-emergence, 20 DAA, visual assessment (100%=total damage, 0%=no damage), read-out: Pre-emergence herbicidal activity (percentage phytotoxicity) LOLPE PRE.
The mark [15] stands for this setting: post-emergence, 360 h, 250 g/ha, post-emergence, 15 DAA, visual assessment (100%=total damage, 0%=no damage), read-out: Post-emergence herbicidal activity (percentage phytotoxicity) ALOMY POST.
Where [16] appears, read: pre-emergence, 480 h, 250 g/ha, pre-emergence, 20 DAA, visual assessment (100%=total damage, 0%=no damage), read-out: Pre-emergence herbicidal activity (percentage phytotoxicity) ALOMY PRE.
The mark [17] stands for this setting: post-emergence, 360 h, 250 g/ha, post-emergence, 15 DAA, visual assessment (100%=total damage, 0%=no damage), read-out: Post-emergence herbicidal activity (percentage phytotoxicity) AVEFA POST.
Where [18] appears, read: pre-emergence, 480 h, 250 g/ha, pre-emergence, 20 DAA, visual assessment (100%=total damage, 0%=no damage), read-out: Pre-emergence herbicidal activity (percentage phytotoxicity) AVEFA PRE.

On to `Cc1cc(-c2ccc(Cl)cc2)cc(C)c1C1C(=O)CC(CC(=O)NC(C)C)C1=O` (stereo not drawn) [Compound A35], for which the pest or weed control at 250 g/ha in test [1] (setting [3]) was 100%; in test [1] (setting [4]), 100%; in the test on Lolium perenne (LOLPE) (setting [5]), 100%; with Lolium perenne (LOLPE) (setting [6]), 100%; in test [2] (setting [7]), 90%; in test [2] (setting [8]) it was 90%. For the same compound, the pest or weed control at 250 g/ha in the test with Avena fatua (AVEFA) (setting [9]) and in the test with Avena fatua (AVEFA) (setting [10]) was 100% throughout.
With `Cc1cc(C)c(C2C(=O)CC(CC(=O)NCc3cccc(Cl)c3)C2=O)c(C)c1` (stereo not drawn) [Compound A96], the pest or weed control at 250 g/ha in test [1] (setting [3]) amounted to 80%; in test [1] (setting [4]) it was 100%; in the test on Lolium perenne (LOLPE) (setting [5]), 100%; in the test with Lolium perenne (LOLPE) (setting [6]) it was 100%; in test [2] (setting [7]) it was 80%; in test [2] (setting [8]), 100%. Besides, the pest or weed control at 250 g/ha in the test on Avena fatua (AVEFA) (setting [9]) came to 80%; in the test with Avena fatua (AVEFA) (setting [10]) it was 70%.
Consider `COc1ccc(C(=O)OC2=C(c3c(C)cc(-c4ncc(Cl)cn4)cc3C)C(=O)C(CC(=O)NC(C)(C)C)C2)cc1` (stereo not drawn) [Compound P1, [4-[2-(tert-butylamino)-2-oxo-ethyl]-2-[4-(5-chloropyrimidin-2-yl)-2,6-dimethyl-phenyl]-3-oxo-cyclopenten-1-yl] 4-methoxybenzoate], for which the pest or weed control at 250 g/ha amounted to 100% in test [1] (post-emergence, 360 h, post-emergence, 250 g/ha, 15 DAA, visual score (100%=total damage; 0%=no damage), read-out: ECHCG POST herbicidal activity (percentage phytotoxicity)); 100% in test [1] (pre-emergence, 480 h, pre-emergence, 250 g/ha, 20 DAA, visual score (100%=total damage; 0%=no damage), read-out: ECHCG PRE herbicidal activity (percentage phytotoxicity)); 100% in the test with Lolium perenne (LOLPE) (post-emergence, 360 h, post-emergence, 250 g/ha, 15 DAA, visual score (100%=total damage; 0%=no damage), read-out: LOLPE POST herbicidal activity (percentage phytotoxicity)); 100% in the test with Lolium perenne (LOLPE) (pre-emergence, 480 h, pre-emergence, 250 g/ha, 20 DAA, visual score (100%=total damage; 0%=no damage), read-out: LOLPE PRE herbicidal activity (percentage phytotoxicity)); 100% in test [2] (post-emergence, 360 h, post-emergence, 250 g/ha, 15 DAA, visual score (100%=total damage; 0%=no damage), read-out: ALOMY POST herbicidal activity (percentage phytotoxicity)); 100% in test [2] (pre-emergence, 480 h, pre-emergence, 250 g/ha, 20 DAA, visual score (100%=total damage; 0%=no damage), read-out: ALOMY PRE herbicidal activity (percentage phytotoxicity)). The pest or weed control at 250 g/ha with Avena fatua (AVEFA) (post-emergence, 360 h, post-emergence, 250 g/ha, 15 DAA, visual score (100%=total damage; 0%=no damage), read-out: AVEFA POST herbicidal activity (percentage phytotoxicity)) came to 100%; with Avena fatua (AVEFA) (pre-emergence, 480 h, pre-emergence, 250 g/ha, 20 DAA, visual score (100%=total damage; 0%=no damage), read-out: AVEFA PRE herbicidal activity (percentage phytotoxicity)), 100%.
For the compound `Cc1cc(-c2ncc(F)cc2F)cc(C)c1C1C(=O)CC(CC(=O)NCc2cccc(Br)c2)C1=O` (stereo not drawn) [Compound B90], the pest or weed control at 250 g/ha in test [1] (setting [11]) came to 100%; in test [1] (setting [12]) it was 100%; with Lolium perenne (LOLPE) (setting [13]) it was 100%; in the test with Lolium perenne (LOLPE) (setting [14]), 100%; in test [2] (setting [15]), 100%; in test [2] (setting [16]), 90%. The pest or weed control at 250 g/ha is 100% with Avena fatua (AVEFA) (setting [17]) and 70% in the test with Avena fatua (AVEFA) (setting [18]).
On to `CNC(=O)CC1CC(=O)C(c2c(C)cc(-c3ncc(F)cc3F)cc2C)C1=O` (stereo not drawn) [Compound B269], for which the pest or weed control at 250 g/ha in test [1] (post-emergence, 360 h, POST-emergence, rate 250 g/ha, visual score 15 DAA (100%=total damage, 0%=no damage), read-out: Post-emergence herbicidal activity (percentage phytotoxicity) ECHCG POST) amounted to 100%; in test [1] (pre-emergence, 480 h, PRE-emergence, rate 250 g/ha, visual score 20 DAA (100%=total damage, 0%=no damage), read-out: Pre-emergence herbicidal activity (percentage phytotoxicity) ECHCG PRE) it was 100%; with Lolium perenne (LOLPE) (post-emergence, 360 h, POST-emergence, rate 250 g/ha, visual score 15 DAA (100%=total damage, 0%=no damage), read-out: Post-emergence herbicidal activity (percentage phytotoxicity) LOLPE POST), 100%; in the test with Lolium perenne (LOLPE) (pre-emergence, 480 h, PRE-emergence, rate 250 g/ha, visual score 20 DAA (100%=total damage, 0%=no damage), read-out: Pre-emergence herbicidal activity (percentage phytotoxicity) LOLPE PRE), 100%; in test [2] (post-emergence, 360 h, POST-emergence, rate 250 g/ha, visual score 15 DAA (100%=total damage, 0%=no damage), read-out: Post-emergence herbicidal activity (percentage phytotoxicity) ALOMY POST), 100%; in test [2] (pre-emergence, 480 h, PRE-emergence, rate 250 g/ha, visual score 20 DAA (100%=total damage, 0%=no damage), read-out: Pre-emergence herbicidal activity (percentage phytotoxicity) ALOMY PRE), 100%. Further, the pest or weed control at 250 g/ha in the test with Avena fatua (AVEFA) (post-emergence, 360 h, POST-emergence, rate 250 g/ha, visual score 15 DAA (100%=total damage, 0%=no damage), read-out: Post-emergence herbicidal activity (percentage phytotoxicity) AVEFA POST) is 100%; in the test with Avena fatua (AVEFA) (pre-emergence, 480 h, PRE-emergence, rate 250 g/ha, visual score 20 DAA (100%=total damage, 0%=no damage), read-out: Pre-emergence herbicidal activity (percentage phytotoxicity) AVEFA PRE) it was 100%.
For the compound `COc1ccccc1CNC(=O)CC1CC(=O)C(c2c(C)cc(-c3ncc(Cl)cc3F)cc2C)C1=O` (stereo not drawn) [Compound A126], the pest or weed control at 250 g/ha in test [1] (setting [3]) was 100%; in test [1] (setting [4]) it was 100%; in the test on Lolium perenne (LOLPE) (setting [5]), 80%; in the test on Lolium perenne (LOLPE) (setting [6]) it was 80%; in test [2] (setting [7]), 30%; in test [2] (setting [8]), 30%. The figures for the pest or weed control at 250 g/ha in the test on Avena fatua (AVEFA) (setting [9]) and in the test with Avena fatua (AVEFA) (setting [10]) were 90% and 50%, respectively.
In the case of `C=C(C)CNC(=O)CC1CC(=O)C(c2c(C)cc(OCC(F)(F)F)cc2C)C1=O` (stereo not drawn) [Compound B147], the pest or weed control at 250 g/ha is 90% in test [1] (setting [11]); 100% in test [1] (setting [12]); 60% with Lolium perenne (LOLPE) (setting [13]); 90% in the test on Lolium perenne (LOLPE) (setting [14]); 80% in test [2] (setting [15]); 90% in test [2] (setting [16]). Moreover, the values for the pest or weed control at 250 g/ha with Avena fatua (AVEFA) (setting [17]) and in the test on Avena fatua (AVEFA) (setting [18]) were 90% and 50%, respectively.
Regarding `Cc1cc(C)c(C2C(=O)CC(CC(=O)NC3CCOCC3)C2=O)c(C)c1` (stereo not drawn) [Compound A17], the pest or weed control at 250 g/ha in test [1] (setting [3]) amounted to 80%; in test [1] (setting [4]), 70%; with Lolium perenne (LOLPE) (setting [5]), 80%; with Lolium perenne (LOLPE) (setting [6]), 70%; in test [2] (setting [7]), 80%; in test [2] (setting [8]) it was 70%. The values for the pest or weed control at 250 g/ha in the test on Avena fatua (AVEFA) (setting [9]) and in the test with Avena fatua (AVEFA) (setting [10]) were 70% and 40%, respectively.
In the case of `CCC(C)(C)NC(=O)CC1CC(=O)C(c2c(C)cc(-c3ncc(Cl)cc3F)cc2C)C1=O` (stereo not drawn) [Compound A46], the pest or weed control at 250 g/ha in test [1] (setting [3]) was 100%; in test [1] (setting [4]) it was 100%; in the test on Lolium perenne (LOLPE) (setting [5]), 100%; with Lolium perenne (LOLPE) (setting [6]) it was 90%; in test [2] (setting [7]) it was 100%; in test [2] (setting [8]), 100%. The pest or weed control at 250 g/ha with Avena fatua (AVEFA) (setting [9]) amounted to 100%; in the test with Avena fatua (AVEFA) (setting [10]) it was 90%.
